What is called pIC50 is −log10 of the IC50, conventionally taken in molar units. Low values mean a large IC50, high ones a small IC50.

The assay addresses human Nav1.7 (Homo sapiens (Human), UniProt Q15858). The experiment in a line: Nav 1.7 in vitro PatchXpress (PX) assay. It counts as cell-based.

SMILES strings stand for the structures. pIC50: −log10 of the molar value. Read-outs that look alike come from different tables or passages of the source.

human Nav1.7, sequence (Q15858 whole entry): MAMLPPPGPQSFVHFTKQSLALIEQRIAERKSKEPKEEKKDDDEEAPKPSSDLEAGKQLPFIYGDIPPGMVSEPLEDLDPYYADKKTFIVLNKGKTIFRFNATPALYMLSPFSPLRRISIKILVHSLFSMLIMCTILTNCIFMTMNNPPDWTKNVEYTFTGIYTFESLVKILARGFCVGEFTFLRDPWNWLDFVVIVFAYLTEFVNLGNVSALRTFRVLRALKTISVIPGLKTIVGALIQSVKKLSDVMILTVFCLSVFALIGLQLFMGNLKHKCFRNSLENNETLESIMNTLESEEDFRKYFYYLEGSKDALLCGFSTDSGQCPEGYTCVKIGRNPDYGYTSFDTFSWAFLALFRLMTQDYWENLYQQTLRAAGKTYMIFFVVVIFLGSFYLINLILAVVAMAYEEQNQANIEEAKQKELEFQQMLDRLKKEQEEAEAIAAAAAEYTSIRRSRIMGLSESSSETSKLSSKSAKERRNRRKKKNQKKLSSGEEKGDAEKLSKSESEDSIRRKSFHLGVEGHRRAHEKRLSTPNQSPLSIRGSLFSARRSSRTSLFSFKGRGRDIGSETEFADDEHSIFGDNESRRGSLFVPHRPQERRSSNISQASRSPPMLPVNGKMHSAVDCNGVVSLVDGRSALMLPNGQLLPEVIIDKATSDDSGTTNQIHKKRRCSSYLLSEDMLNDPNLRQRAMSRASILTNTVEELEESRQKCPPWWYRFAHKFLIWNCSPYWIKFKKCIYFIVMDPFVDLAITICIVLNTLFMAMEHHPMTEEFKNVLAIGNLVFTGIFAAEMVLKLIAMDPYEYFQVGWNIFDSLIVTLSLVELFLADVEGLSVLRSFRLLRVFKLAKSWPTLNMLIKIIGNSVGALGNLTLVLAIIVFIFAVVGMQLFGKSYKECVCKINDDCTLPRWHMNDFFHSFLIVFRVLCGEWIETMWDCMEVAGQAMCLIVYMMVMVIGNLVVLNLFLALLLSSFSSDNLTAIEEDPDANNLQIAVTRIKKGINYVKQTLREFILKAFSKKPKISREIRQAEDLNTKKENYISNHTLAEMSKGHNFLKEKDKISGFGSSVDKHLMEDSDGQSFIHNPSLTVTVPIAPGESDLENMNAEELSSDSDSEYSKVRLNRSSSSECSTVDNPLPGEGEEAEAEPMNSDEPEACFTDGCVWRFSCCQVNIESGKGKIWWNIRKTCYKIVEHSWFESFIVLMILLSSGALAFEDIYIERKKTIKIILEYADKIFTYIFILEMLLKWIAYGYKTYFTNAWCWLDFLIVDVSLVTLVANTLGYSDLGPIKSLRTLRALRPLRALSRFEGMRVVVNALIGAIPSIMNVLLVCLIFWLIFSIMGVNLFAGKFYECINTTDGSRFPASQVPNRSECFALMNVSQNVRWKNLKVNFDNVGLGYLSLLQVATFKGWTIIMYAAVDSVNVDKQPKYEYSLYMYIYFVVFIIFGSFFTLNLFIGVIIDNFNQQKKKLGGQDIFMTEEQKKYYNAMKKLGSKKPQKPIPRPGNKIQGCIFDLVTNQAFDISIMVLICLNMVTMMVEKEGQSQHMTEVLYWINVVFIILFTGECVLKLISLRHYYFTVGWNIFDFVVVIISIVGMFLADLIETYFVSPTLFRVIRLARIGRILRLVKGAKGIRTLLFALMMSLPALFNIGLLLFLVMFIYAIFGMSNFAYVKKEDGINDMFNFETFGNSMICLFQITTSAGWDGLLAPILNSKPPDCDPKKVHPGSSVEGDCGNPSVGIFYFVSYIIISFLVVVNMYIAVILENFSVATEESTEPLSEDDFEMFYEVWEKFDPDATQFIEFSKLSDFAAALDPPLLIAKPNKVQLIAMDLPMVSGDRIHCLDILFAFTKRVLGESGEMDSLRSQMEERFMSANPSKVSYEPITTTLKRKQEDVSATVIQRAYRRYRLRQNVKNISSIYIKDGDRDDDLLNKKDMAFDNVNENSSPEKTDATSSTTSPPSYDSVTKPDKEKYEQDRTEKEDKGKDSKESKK

`COc1ncc(Oc2ncc(-c3ccc(C(=O)NS(C)(=O)=O)cc3OC(F)F)cc2Cl)cc1Cl` [Example 436, 4-(5-chloro-6-((5-chloro-6-methoxy-3-pyridinyl)oxy)-3-pyridinyl)-3-(difluoromethoxy)-N-(methylsulfonyl)benzamide]: the negative-log IC50 (pIC50) is 7.04.

Molecule `COc1cc(C(=O)NS(C)(=O)=O)c(F)cc1-c1cnc(Oc2cc(Cl)ccc2F)c(Cl)c1` [Example 747, 4-(5-chloro-6-(5-chloro-2-fluorophenoxy)-3-pyridinyl)-2-fluoro-5-methoxy-N-(methylsulfonyl)benzamide] gave a negative-log IC50 (pIC50) (in-vitro Nav 1.7 PX data) of 7.08.

In the case of `COc1cc(C(=O)NS(C)(=O)=O)c(F)cc1-c1cnc(Oc2ccc(C)c(Cl)c2)c(Cl)c1` [Example 751, 4-(5-chloro-6-(3-chloro-4-methylphenoxy)-3-pyridinyl)-2-fluoro-5-methoxy-N-(methylsulfonyl)benzamide], the pIC50 (in-vitro Nav 1.7 PX data) was 7.01.

Regarding `COc1cc(C(=O)NS(C)(=O)=O)c(F)cc1-c1cnc(Oc2cccc(C)c2Cl)c(Cl)c1` [Example 760, 4-(5-chloro-6-(2-chloro-3-methylphenoxy)-3-pyridinyl)-2-fluoro-5-methoxy-N-(methylsulfonyl)benzamide], the negative logarithm of the IC50 (pIC50) (in-vitro Nav 1.7 PX data) was 7.21.

On to `CS(=O)(=O)NC(=O)c1cc(OC(F)F)c(-c2cnc(O[C@@H]3C[C@H]4CC[C@H]3C4)c(Cl)c2)cc1F` [Example 783, 4-(6-((1S,2R,4S)-bicyclo[2.2.1]hept-2-yloxy)-5-chloro-3-pyridinyl)-5-(difluoromethoxy)-2-fluoro-N-(methylsulfonyl)benzamide], for which, for the setting “in-vitro Nav 1.7 PX data”, the pIC50 was 7.14.

`Cc1c(Cl)cccc1Oc1ncc(-c2ccc(C(=O)NS(C)(=O)=O)cc2OC(F)F)cc1Cl` [Example 586, 4-(5-chloro-6-(3-chloro-2-methylphenoxy)-3-pyridinyl)-3-(difluoromethoxy)-N-(methylsulfonyl)benzamide] had a pIC50 of 7.46.

The molecule `COc1cc(C(=O)NS(C)(=O)=O)c(F)cc1-c1cnc(Oc2cccc(Cl)c2C)c(Cl)c1` [Example 704, 4-(5-chloro-6-(3-chloro-2-methylphenoxy)-3-pyridinyl)-2-fluoro-5-methoxy-N-(methylsulfonyl)benzamide] showed a pIC50 of 7.33.

Take `CS(=O)(=O)NC(=O)c1ccc(-c2cnc(Oc3ccc4ccccc4c3)c(Cl)c2)c(OC(F)F)c1` [Example 446, 4-(5-chloro-6-(2-naphthalenyloxy)-3-pyridinyl)-3-(difluoromethoxy)-N-(methylsulfonyl)benzamide]: the pIC50 was 7.13.

In the case of `Cc1cc(C(=O)NS(C)(=O)=O)c(F)cc1-c1ccc(OC(F)(F)C(F)F)cc1` [Example 811, 5-fluoro-2-methyl-N-(methylsulfonyl)-4′-(1,1,2,2-tetrafluoroethoxy)-4-biphenylcarboxamide], the negative-log IC50 (pIC50) (in-vitro Nav 1.7 PX data) is 5.80.

In turn, `CS(=O)(=O)NC(=O)c1ccc(-c2cnc(Oc3ccc(Cl)cc3)c(Cl)c2)c(OC(F)F)c1` [Example 466, 4-(5-chloro-6-(4-chlorophenoxy)-3-pyridinyl)-3-(difluoromethoxy)-N-(methylsulfonyl)benzamide] gave a negative-log IC50 (pIC50) of 7.16.

On to `CS(=O)(=O)NC(=O)c1ccc(-c2cnc(Oc3cccc4ccccc34)c(Cl)c2)c(OC(F)F)c1` [Example 452, 4-(5-chloro-6-(1-naphthalenyloxy)-3-pyridinyl)-3-(difluoromethoxy)-N-(methylsulfonyl)benzamide], for which the pIC50 was 7.22.

In the case of `Cc1cc(C(=O)NS(C)(=O)=O)c(F)cc1-c1cccc(OC(F)(F)C(F)F)c1` [Example 812, 5-fluoro-2-methyl-N-(methylsulfonyl)-3′-(1,1,2,2-tetrafluoroethoxy)-4-biphenylcarboxamide], the pIC50 (in-vitro Nav 1.7 PX data) was 5.23.

Take `COc1cc(C(=O)NS(C)(=O)=O)c(F)cc1-c1cnc(O[C@H](C)c2ccc(F)cc2Cl)c(Cl)c1` [Example 761, 4-(5-chloro-6-((1R)-1-(2-chloro-4-fluorophenyl)ethoxy)-3-pyridinyl)-2-fluoro-5-methoxy-N-(methylsulfonyl)benzamide]: the pIC50 (in-vitro Nav 1.7 PX data) was 7.09.

With `Cc1cc(C(=O)NS(C)(=O)=O)c(F)cc1-c1cnc(-c2ccc(Cl)c(Cl)c2)c(Cl)c1` [Example 835, 4-(5-chloro-6-(3,4-dichlorophenyl)-3-pyridinyl)-2-fluoro-5-methyl-N-(methylsulfonyl)benzamide], the negative logarithm of the IC50 (pIC50) (in-vitro Nav 1.7 PX data) is 6.78.

In the case of `COc1cc(C(=O)NS(C)(=O)=O)c(F)cc1-c1cnc(N[C@@H]2CC23CCCC3)c(Cl)c1` [Example 720, 4-(5-chloro-6-((1R)-spiro[2.4]hept-1-ylamino)-3-pyridinyl)-2-fluoro-5-methoxy-N-(methylsulfonyl)benzamide, 4-(5-chloro-6-((1S)-spiro[2.4]hept-1-ylamino)-3-pyridinyl)-2-fluoro-5-methoxy-N-(methylsulfonyl)benzamide], the pIC50 (in-vitro Nav 1.7 PX data) is 7.07.

The molecule `Cc1cc(C(=O)NS(C)(=O)=O)c(F)cc1-c1cnc(Oc2ccc(F)c(Cl)c2)c(Cl)c1` [Example 626, 4-(5-chloro-6-(3-chloro-4-fluorophenoxy)-3-pyridinyl)-2-fluoro-5-methyl-N-(methylsulfonyl)benzamide] showed a negative logarithm of the IC50 (pIC50) of 6.97.

In turn, `Cc1ccc(Oc2ncc(-c3cc(F)c(C(=O)NS(C)(=O)=O)cc3F)cc2Cl)c(F)c1F` [Example 569, 4-(5-chloro-6-(2,3-difluoro-4-methylphenoxy)-3-pyridinyl)-2,5-difluoro-N-(methylsulfonyl)benzamide] showed a pIC50 of 7.22.

On to `COc1ncc(F)cc1-c1cc(-c2cc(F)c(C(=O)NS(C)(=O)=O)cc2F)cnc1OCC(C)C` [Example 837, 2,5-Difluoro-4-(5′-Fluoro-2′-Methoxy-2-(2-Methylpropoxy)-3,3′-Bipyridin-5-yl)-N-(Methylsulfonyl)Benzamide], for which, where the note is “in-vitro Nav 1.7 PX data”, the negative-log IC50 (pIC50) is 6.09.

`COc1cc(Oc2ncc(-c3cc(F)c(C(=O)NS(C)(=O)=O)cc3OC)cc2Cl)c(Cl)cc1Cl` [Example 716, 4-(5-chloro-6-(2,4-dichloro-5-methoxyphenoxy)-3-pyridinyl)-2-fluoro-5-methoxy-N-(methylsulfonyl)benzamide] had a pIC50 (in-vitro Nav 1.7 PX data) of 7.04.

In the case of `COc1cc(C(=O)NS(C)(=O)=O)ccc1-c1cnc(OCCc2ccccc2)c(C#N)c1` [Example 539, 4-(5-cyano-6-(2-phenylethoxy)-3-pyridinyl)-3-methoxy-N-(methylsulfonyl)benzamide], the pIC50 was 7.03.

Where the note is “in-vitro Nav 1.7 PX data”, `Cc1cc(C(=O)NS(C)(=O)=O)c(F)cc1-c1ccc(CC2CC2)c(Cl)c1` [Example 813, 3′-chloro-4′-(cyclopropylmethyl)-5-fluoro-2-methyl-N-(methylsulfonyl)-4-biphenylcarboxamide] showed a pIC50 of 6.85.

`Cc1cccc(Oc2ncc(-c3cc(F)c(C(=O)NS(C)(=O)=O)cc3C)cc2Cl)c1` [Example 621, 4-(5-chloro-6-(3-methylphenoxy)-3-pyridinyl)-2-fluoro-5-methyl-N-(methylsulfonyl)benzamide] showed a negative logarithm of the IC50 (pIC50) of 6.97.

With `CCc1cc(Oc2ncc(-c3ccc(C(=O)NS(C)(=O)=O)cc3OC)cc2Cl)ccc1Cl` [Example 368, 4-(5-chloro-6-(4-chloro-3-ethylphenoxy)-3-pyridinyl)-3-methoxy-N-(methylsulfonyl)benzamide], the negative-log IC50 (pIC50) is 7.14.

`COc1cc(C(=O)NS(C)(=O)=O)c(F)cc1-c1cnc(OCc2ccc(Cl)cc2)c(Cl)c1` [Example 750, 4-(5-chloro-6-((4-chlorobenzyl)oxy)-3-pyridinyl)-2-fluoro-5-methoxy-N-(methylsulfonyl)benzamide]: for the setting “in-vitro Nav 1.7 PX data”, the pIC50 is 7.13.
